Experimental data from PubChem BioAssay (NCI).
Several values for one entry are separate records, joined by “and”; a condition that tells them apart may be missing. Equal entries are not always repeated.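 Method: 48-hour compound exposure of cells in 96-well plates, five concentrations, linear interpolation of endpoints. The concentration for 50% growth inhibition is given as GI50. TGI denotes the concentration required for complete inhibition of growth.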

Columns and labels:
Experiment in all cases: NCI-60 cell line screen, 48 h
HL-60(TB) leukemia = tested on: HL-60(TB) leukemia
CCRF-CEM leukemia = tested on: CCRF-CEM leukemia
TK-10 renal = tested on: TK-10 renal
BT-549 breast = tested on: BT-549 breast
RPMI-8226 leukemia = tested on: RPMI-8226 leukemia
NCI-H522 lung = tested on: NCI-H522 lung
A498 renal = tested on: A498 renal
MALME-3M melanoma = tested on: MALME-3M melanoma
OVCAR-4 ovarian = tested on: OVCAR-4 ovarian
HCC-2998 colon = tested on: HCC-2998 colon
SF-268 CNS = tested on: SF-268 CNS
MCF7 breast = tested on: MCF7 breast
M14 melanoma = tested on: M14 melanoma
HT29 colon = tested on: HT29 colon
HCT-15 colon = tested on: HCT-15 colon
SK-OV-3 ovarian = tested on: SK-OV-3 ovarian
SW-620 colon = tested on: SW-620 colon
SN12C renal = tested on: SN12C renal
HOP-92 NSCLC = tested on: HOP-92 NSCLC
SF-295 CNS = tested on: SF-295 CNS
KM12 colon = tested on: KM12 colon
SNB-19 CNS = tested on: SNB-19 CNS
IGROV1 ovarian = tested on: IGROV1 ovarian
SK-MEL-5 melanoma = tested on: SK-MEL-5 melanoma
COLO 205 colon = tested on: COLO 205 colon
EKVX NSCLC = tested on: EKVX NSCLC
OVCAR-3 ovarian = tested on: OVCAR-3 ovarian
HOP-62 NSCLC = tested on: HOP-62 NSCLC
MOLT-4 leukemia = tested on: MOLT-4 leukemia
OVCAR-8 ovarian = tested on: OVCAR-8 ovarian
786-0 renal = tested on: 786-0 renal
HCT-116 colon = tested on: HCT-116 colon
SR leukemia = tested on: SR leukemia
NCI-H226 lung = tested on: NCI-H226 lung
K-562 leukemia = tested on: K-562 leukemia
LOX IMVI melanoma = tested on: LOX IMVI melanoma
DU-145 prostate = tested on: DU-145 prostate
T-47D breast = tested on: T-47D breast
A549 NSCLC = tested on: A549 NSCLC
SK-MEL-2 melanoma = tested on: SK-MEL-2 melanoma
PC-3 prostate = tested on: PC-3 prostate
ACHN renal = tested on: ACHN renal
OVCAR-5 ovarian = tested on: OVCAR-5 ovarian
SF-539 CNS = tested on: SF-539 CNS
SNB-75 CNS = tested on: SNB-75 CNS
NCI-H460 lung = tested on: NCI-H460 lung
RXF 393 renal = tested on: RXF 393 renal

Row | SMILES | TGI (TK-10 renal) | TGI (NCI-H522 lung) | TGI (A498 renal) | TGI (MALME-3M melanoma) | TGI (OVCAR-4 ovarian) | TGI (HCC-2998 colon) | TGI (MCF7 breast) | TGI (HT29 colon) | TGI (HCT-15 colon) | TGI (SW-620 colon) | TGI (SN12C renal) | TGI (HOP-92 NSCLC) | TGI (SF-295 CNS) | TGI (SNB-19 CNS) | TGI (IGROV1 ovarian) | TGI (COLO 205 colon) | TGI (EKVX NSCLC) | TGI (786-0 renal) | TGI (HCT-116 colon) | TGI (SR leukemia) | also measured
1 | Cc1cc(S(=O)(=O)[O-])ccc1-n1nc(C)[c-](N=Nc2cc(S(=O)(=O)[O-])ccc2C(=O)[O-])c1=O.[Cr+3].[Na+].[OH-] (configuration not stated) |  |  |  |  |  |  |  |  |  |  |  |  |  |  |  |  |  |  |  |  | GI50 (HL-60(TB) leukemia): 28300 nM; GI50 (CCRF-CEM leukemia): 468 nM
2 | CC(=O)Nc1ccc(/C=C/C(=O)N2CC(CCl)c3c2cc(N)c2ccccc32)cc1 (configuration not stated) | 18700 nM | 6.71 nM | 6.09 nM | 7.56 nM | 9180 nM | 42.7 nM and 129 nM | 50000 nM and > 100000 nM | 38.4 nM | 50000 nM | 509 nM | 7.2 nM | 9.89 nM | 38500 nM | 26.9 nM and 111 nM | 614 nM | 36.2 nM | 57.6 nM | 12.4 nM | 140 nM | 50000 nM | TGI (BT-549 breast): 32.6 nM and 21.8 nM; TGI (RPMI-8226 leukemia): 50000 nM; TGI (SF-268 CNS): 20.8 nM; TGI (M14 melanoma): 7.95 nM; TGI (SK-OV-3 ovarian): 573 nM and 300 nM; TGI (CCRF-CEM leukemia): 50000 nM; TGI (KM12 colon): 50000 nM and > 100000 nM; TGI (SK-MEL-5 melanoma): 5.89 nM; TGI (OVCAR-3 ovarian): 5560 nM; TGI (HOP-62 NSCLC): 14.5 nM; TGI (MOLT-4 leukemia): 50000 nM; TGI (OVCAR-8 ovarian): 74.1 nM; TGI (NCI-H226 lung): 29.2 nM; TGI (K-562 leukemia): 50000 nM; TGI (LOX IMVI melanoma): 97 nM; TGI (DU-145 prostate): 135 nM
3 | C/C(=C\c1csc(C)n1)[C@@H]1C[C@@H]2O[C@]2(C)CCC[C@H](C)[C@H](O)[C@@H](C)C(=O)C(C)(C)[C@@H](O)CC(=O)O1 | 44800 nM | < 0.1 nM | 116 nM | > 100000 nM | > 100000 nM | < 0.1 nM | 11.2 nM | < 0.1 nM | 4.47 nM | 16100 nM | > 100000 nM | 26.3 nM | < 0.1 nM | > 100000 nM | > 100000 nM | < 0.1 nM | > 100000 nM | > 100000 nM | > 100000 nM | < 0.1 nM | TGI (T-47D breast): > 100000 nM; TGI (A549 NSCLC): > 100000 nM; GI50 (OVCAR-4 ovarian): 60100 nM; TGI (HL-60(TB) leukemia): < 0.1 nM; TGI (SK-MEL-2 melanoma): 33700 nM; TGI (PC-3 prostate): > 100000 nM; TGI (ACHN renal): > 100000 nM; TGI (OVCAR-5 ovarian): > 100000 nM; TGI (SF-539 CNS): < 0.1 nM; TGI (SNB-75 CNS): < 0.1 nM; TGI (NCI-H460 lung): > 100000 nM; TGI (RXF 393 renal): 4.18 nM; TGI (K-562 leukemia): 274 nM; TGI (DU-145 prostate): 0.139 nM
